Values belong to the compound of their own block, whether it stands above or below them.
Columns and labels:
[1] = system: CC[C@H](C)[C@@H]1NC(=O)[C@@H](CCCN=C(N)N)NC(=O)[C@H](Cc2ccc(O)cc2)NC(=O)[C@@H](CCC(=O)O)NC(=O)[C@H](CCSC)NC(=O)[C@@H]([C@@H](C)O)NC(=O)[C@H](N)CCC(=O)NCCCC[C@H](C(N)=O)NC(=O)[C@@H](C(C)C)NC(=O)[C@H](CCCN=C(N)N)NC(=O)[C@@H](CCC(=O)O)NC1=O; conditions: 120 nM
[2] = system: CC[C@H](C)[C@@H]1NC(=O)[C@@H](CCCN=C(N)N)NC(=O)[C@H](Cc2ccc(O)cc2)NC(=O)[C@@H](CCC(=O)O)NC(=O)[C@H](CCSC)NC(=O)[C@@H]([C@@H](C)O)NC(=O)[C@H](N)CCC(=O)NCCCC[C@H](C(N)=O)NC(=O)[C@@H](C(C)C)NC(=O)[C@H](CCCN=C(N)N)NC(=O)[C@@H](CCC(=O)O)NC1=O; conditions: 276 nM
[3] = system: CC[C@H](C)[C@@H]1NC(=O)[C@@H](CCCN=C(N)N)NC(=O)[C@H](Cc2ccc(O)cc2)NC(=O)[C@@H](CCC(=O)O)NC(=O)[C@H](CCSC)NC(=O)[C@@H]([C@@H](C)O)NC(=O)[C@H](N)CCC(=O)NCCCC[C@H](C(N)=O)NC(=O)[C@@H](C(C)C)NC(=O)[C@H](CCCN=C(N)N)NC(=O)[C@@H](CCC(=O)O)NC1=O; conditions: 120 nM; remark: listed apart in the source
[4] = system: CC[C@H](C)[C@@H]1NC(=O)[C@@H](CCCN=C(N)N)NC(=O)[C@H](Cc2ccc(O)cc2)NC(=O)[C@@H](CCC(=O)O)NC(=O)[C@H](CCSC)NC(=O)[C@@H]([C@@H](C)O)NC(=O)[C@H](N)CCC(=O)NCCCC[C@H](C(N)=O)NC(=O)[C@@H](C(C)C)NC(=O)[C@H](CCCN=C(N)N)NC(=O)[C@@H](CCC(=O)O)NC1=O; conditions: 276 nM; remark: listed apart in the source
[5] = Compound was tested for the inhibition of subtilisin carlsberg at 138 nM
Chymotrypsinogen A [6] = biological target: T1, Chymotrypsinogen A (Bos taurus, UniProt P00766); assay: Compound was tested for the inhibition of chymotrypsin at 69 nM
Chymotrypsinogen A [7] = biological target: T1, Chymotrypsinogen A; assay: Compound was tested for the inhibition of chymotrypsin at 138 nM
[8] = Compound was tested for the inhibition of subtilisin carlsberg at 23 nM
[9] = biological target: Chymotrypsinogen A (Bos taurus) (UniProt P00766); conditions: 120 nM
[10] = biological target: Chymotrypsinogen A (Bos taurus) (UniProt P00766); conditions: 276 nM
[11] = Compound was tested for the inhibition of subtilisin carlsberg at 300 nM
Chymotrypsinogen A [12] = biological target: T1, Chymotrypsinogen A; assay: Compound was tested for the inhibition of chymotrypsin at 120 nM
[13] = Compound was tested for the inhibition of subtilisin carlsberg at 690 nM
Chymotrypsinogen A [14] = biological target: T1, Chymotrypsinogen A; assay: Compound was tested for the inhibition of chymotrypsin at 276 nM

Compound: Chymotrypsinogen A (Bos taurus) (from UniProt P00766)
- Km [1]: 310 µM
- Km [2]: 298 µM
- Vmax [3]: 3.89e-07 M⁻¹ s⁻¹
- Vmax [4]: 3.23e-07 M⁻¹ s⁻¹

- Ki [5]: 0.116 µM
- Ki (Chymotrypsinogen A [6]): 0.203 µM
- Ki (Chymotrypsinogen A [7]): 0.191 µM
- Ki [8]: 0.128 µM
Compound: CC[C@H](C)[C@@H]1NC(=O)[C@@H](NC(C)=O)CC(=O)/N=C(/N)NCCC[C@@H](C(N)=O)NC(=O)[C@H](Cc2ccc(O)cc2)NC(=O)[C@H](CCC(=O)O)NC(=O)[C@H](CCSC)NC(=O)[C@H]([C@@H](C)O)NC(=O)[C@H](C(C)C)NC1=O

- k cat [9]: 55.1 s⁻¹
- k cat [10]: 45.8 s⁻¹
Compound: CC[C@H](C)[C@@H]1NC(=O)[C@@H](CCCN=C(N)N)NC(=O)[C@H](Cc2ccc(O)cc2)NC(=O)[C@@H](CCC(=O)O)NC(=O)[C@H](CCSC)NC(=O)[C@@H]([C@@H](C)O)NC(=O)[C@H](N)CCC(=O)NCCCC[C@H](C(N)=O)NC(=O)[C@@H](C(C)C)NC(=O)[C@H](CCCN=C(N)N)NC(=O)[C@@H](CCC(=O)O)NC1=O

- Ki [11]: 0.775 µM
- Ki (Chymotrypsinogen A [12]): 0.668 µM
- Ki [13]: 0.786 µM
- Ki (Chymotrypsinogen A [14]): 0.656 µM
Compound: CC[C@H](C)[C@@H]1NC(=O)[C@H](CCCNC(=N)N)NC(=O)[C@H](Cc2ccc(O)cc2)NC(=O)[C@H](CCC(=O)O)NC(=O)[C@H](CCSC)NC(=O)[C@H]([C@@H](C)O)NC(=O)[C@@H](N)CCC(=O)NCCCC[C@@H](C(N)=O)NC(=O)[C@H](C(C)C)NC(=O)[C@H](CCCNC(=N)N)NC(=O)[C@H](CCC(=O)O)NC1=O

Reference: ChEMBL document CHEMBL1152090, “Engineering of cyclic peptides with novel inhibiting properties to differentiate two serine proteases, chymotrypsin and subtilisin Carlsberg” (Bioorg Med Chem Lett, 1994)
